Here are results for two molecules from US20240294545A1 (CSPC Zhongqi Pharmaceutical Technology (Shijiazhuang) Co., …, priority 2020, published 2024).

A word on the IC50: it is the point on the concentration scale where inhibition reaches its midpoint.

Experiment [1] relates to subcutaneous xenograft tumor of human glioblastoma LN-18. Description: LN-18 subcutaneous xenograft, combined with radiotherapy. It is filed as in vivo, NOG mice. The following applies: compound 10 mg/kg intragastric qd × 5 + IR 1 Gy, day 17. Put shortly:
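Female NOG mice (18–22 g) bearing subcutaneous LN-18 tumours (1.5*10^7 cells, right costal region) were grouped at 100–150 mm^3; radiotherapy followed compound dosing by 1 h. Caliper volumes twice weekly (0.5×long×short^2); TGI % derived from treated vs control mean volume changes from day 0.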

Experiment [2] has as its system intracranial murine glioma GL-261-Luc. As to the kind of experiment: Intracranial murine glioma GL-261-Luc model, combined with radiotherapy. Type of experiment: in vivo, C57BL/6 mice. The conditions noted are these: for D17 BLI / D 17 TGI: compound 10 mg/kg intragastric qd × 5 + IR 2 Gy; for D17 BLI: day 17; for D 17 TGI: day 17, from bioluminescence. How it is done: 8 Efficacy Test of the Compounds of the Present Disclosure Combined with Radiotherapy in the Intracranial Murine Glioma GL-261-Luc Model
8.1 Experimental Animals: C57BL/6 Mice, SPF, Female, 19 to 22 g.
GL-261-Luc tumor cells, DMEM medium:fetal bovine serum=90%:10%, accompanied by adding […] L-Glu, 37° C., 5% CO2.
Female C57BL/6 mice were anesthetized with Shutai 50 (60 mg/mL) and thiazine (1.5 mg/mL). Buprenorphine (0.1 mg/kg) was injected subcutaneously 30 min before operation and 6 h after operation to relieve pain. The operation area was disinfected with 70% ethanol solution. A sagittal incision was made on the parietal-occipital bone of anesthetized mice with a sterile scalpel, after cleaning the exposed skull surface with 3% hydrogen peroxide solution, tumor cells were injected. After injection, the skull was cleaned with 3% hydrogen peroxide solution, dried with a sterile dry cotton swab, and the incision was sutured. The state of mice was examined continuously to ensure that mice fully recovered from anesthesia.
The inoculated mice were weighed and intraperitoneally injected with […] (150 mg/kg). After 10 min injection, the animals were anesthetized with a mixture of oxygen and isoflurane. When the animal was completely anesthetized, it was moved into the imaging room for bioluminescence detection. The bioluminescence signal of the whole animal was measured and recorded for the image.
Bioluminescence detection was performed on the second day after operation, and the tumor-bearing mice were randomly divided into groups according to the intensity of bioluminescence. The specific groups were as follows. The administration route was intragastric administration and then JR 1 h after administration.
After grouping, bioluminescence detection was performed 1 to 2 times a week, according to the bioluminescence data, tumor growth inhibitory rate was calculated as follows: TGI (%)=[1−(Ti−T0)/(Vi−V0)]×100, wherein Ti represents the mean bioluminescence data of a given treatment group on a certain day; T0 represents the mean bioluminescence data of this treatment group at the beginning of administration; Vi represents the mean bioluminescence data of the vehicle control group on a certain day (the same day as that in Ti); V0 represents the mean bioluminescence data of the vehicle control group at the beginning of administration.

Experiment [3] deals with ATM (Homo sapiens (Human), UniProt Q13315). Description: Caliper mobility shift assay for ATM. Type of experiment: biochemical. The conditions noted are these: read-out: IC50 of inhibitory activity on ATM kinase. How it is done: 1.2 Determination of the Inhibitory Activities of Compounds on ATM: Caliper Mobility Shift Assay for ATM
To a 96-well plate, 98 μL of DMSO and 2 μL of the 10 mM stock solution were added and mixed evenly so that the concentration of the solution was 200 μM.
Based on the inhibitory rates of the compound at different concentrations, IC50 was calculated according to the formula: Y=Bottom+(Top−Bottom)/(1+(IC50/X)^HillSlope).

Marks after values point to notes of the source that are not given here.

Sequence of ATM (Q13315 whole entry): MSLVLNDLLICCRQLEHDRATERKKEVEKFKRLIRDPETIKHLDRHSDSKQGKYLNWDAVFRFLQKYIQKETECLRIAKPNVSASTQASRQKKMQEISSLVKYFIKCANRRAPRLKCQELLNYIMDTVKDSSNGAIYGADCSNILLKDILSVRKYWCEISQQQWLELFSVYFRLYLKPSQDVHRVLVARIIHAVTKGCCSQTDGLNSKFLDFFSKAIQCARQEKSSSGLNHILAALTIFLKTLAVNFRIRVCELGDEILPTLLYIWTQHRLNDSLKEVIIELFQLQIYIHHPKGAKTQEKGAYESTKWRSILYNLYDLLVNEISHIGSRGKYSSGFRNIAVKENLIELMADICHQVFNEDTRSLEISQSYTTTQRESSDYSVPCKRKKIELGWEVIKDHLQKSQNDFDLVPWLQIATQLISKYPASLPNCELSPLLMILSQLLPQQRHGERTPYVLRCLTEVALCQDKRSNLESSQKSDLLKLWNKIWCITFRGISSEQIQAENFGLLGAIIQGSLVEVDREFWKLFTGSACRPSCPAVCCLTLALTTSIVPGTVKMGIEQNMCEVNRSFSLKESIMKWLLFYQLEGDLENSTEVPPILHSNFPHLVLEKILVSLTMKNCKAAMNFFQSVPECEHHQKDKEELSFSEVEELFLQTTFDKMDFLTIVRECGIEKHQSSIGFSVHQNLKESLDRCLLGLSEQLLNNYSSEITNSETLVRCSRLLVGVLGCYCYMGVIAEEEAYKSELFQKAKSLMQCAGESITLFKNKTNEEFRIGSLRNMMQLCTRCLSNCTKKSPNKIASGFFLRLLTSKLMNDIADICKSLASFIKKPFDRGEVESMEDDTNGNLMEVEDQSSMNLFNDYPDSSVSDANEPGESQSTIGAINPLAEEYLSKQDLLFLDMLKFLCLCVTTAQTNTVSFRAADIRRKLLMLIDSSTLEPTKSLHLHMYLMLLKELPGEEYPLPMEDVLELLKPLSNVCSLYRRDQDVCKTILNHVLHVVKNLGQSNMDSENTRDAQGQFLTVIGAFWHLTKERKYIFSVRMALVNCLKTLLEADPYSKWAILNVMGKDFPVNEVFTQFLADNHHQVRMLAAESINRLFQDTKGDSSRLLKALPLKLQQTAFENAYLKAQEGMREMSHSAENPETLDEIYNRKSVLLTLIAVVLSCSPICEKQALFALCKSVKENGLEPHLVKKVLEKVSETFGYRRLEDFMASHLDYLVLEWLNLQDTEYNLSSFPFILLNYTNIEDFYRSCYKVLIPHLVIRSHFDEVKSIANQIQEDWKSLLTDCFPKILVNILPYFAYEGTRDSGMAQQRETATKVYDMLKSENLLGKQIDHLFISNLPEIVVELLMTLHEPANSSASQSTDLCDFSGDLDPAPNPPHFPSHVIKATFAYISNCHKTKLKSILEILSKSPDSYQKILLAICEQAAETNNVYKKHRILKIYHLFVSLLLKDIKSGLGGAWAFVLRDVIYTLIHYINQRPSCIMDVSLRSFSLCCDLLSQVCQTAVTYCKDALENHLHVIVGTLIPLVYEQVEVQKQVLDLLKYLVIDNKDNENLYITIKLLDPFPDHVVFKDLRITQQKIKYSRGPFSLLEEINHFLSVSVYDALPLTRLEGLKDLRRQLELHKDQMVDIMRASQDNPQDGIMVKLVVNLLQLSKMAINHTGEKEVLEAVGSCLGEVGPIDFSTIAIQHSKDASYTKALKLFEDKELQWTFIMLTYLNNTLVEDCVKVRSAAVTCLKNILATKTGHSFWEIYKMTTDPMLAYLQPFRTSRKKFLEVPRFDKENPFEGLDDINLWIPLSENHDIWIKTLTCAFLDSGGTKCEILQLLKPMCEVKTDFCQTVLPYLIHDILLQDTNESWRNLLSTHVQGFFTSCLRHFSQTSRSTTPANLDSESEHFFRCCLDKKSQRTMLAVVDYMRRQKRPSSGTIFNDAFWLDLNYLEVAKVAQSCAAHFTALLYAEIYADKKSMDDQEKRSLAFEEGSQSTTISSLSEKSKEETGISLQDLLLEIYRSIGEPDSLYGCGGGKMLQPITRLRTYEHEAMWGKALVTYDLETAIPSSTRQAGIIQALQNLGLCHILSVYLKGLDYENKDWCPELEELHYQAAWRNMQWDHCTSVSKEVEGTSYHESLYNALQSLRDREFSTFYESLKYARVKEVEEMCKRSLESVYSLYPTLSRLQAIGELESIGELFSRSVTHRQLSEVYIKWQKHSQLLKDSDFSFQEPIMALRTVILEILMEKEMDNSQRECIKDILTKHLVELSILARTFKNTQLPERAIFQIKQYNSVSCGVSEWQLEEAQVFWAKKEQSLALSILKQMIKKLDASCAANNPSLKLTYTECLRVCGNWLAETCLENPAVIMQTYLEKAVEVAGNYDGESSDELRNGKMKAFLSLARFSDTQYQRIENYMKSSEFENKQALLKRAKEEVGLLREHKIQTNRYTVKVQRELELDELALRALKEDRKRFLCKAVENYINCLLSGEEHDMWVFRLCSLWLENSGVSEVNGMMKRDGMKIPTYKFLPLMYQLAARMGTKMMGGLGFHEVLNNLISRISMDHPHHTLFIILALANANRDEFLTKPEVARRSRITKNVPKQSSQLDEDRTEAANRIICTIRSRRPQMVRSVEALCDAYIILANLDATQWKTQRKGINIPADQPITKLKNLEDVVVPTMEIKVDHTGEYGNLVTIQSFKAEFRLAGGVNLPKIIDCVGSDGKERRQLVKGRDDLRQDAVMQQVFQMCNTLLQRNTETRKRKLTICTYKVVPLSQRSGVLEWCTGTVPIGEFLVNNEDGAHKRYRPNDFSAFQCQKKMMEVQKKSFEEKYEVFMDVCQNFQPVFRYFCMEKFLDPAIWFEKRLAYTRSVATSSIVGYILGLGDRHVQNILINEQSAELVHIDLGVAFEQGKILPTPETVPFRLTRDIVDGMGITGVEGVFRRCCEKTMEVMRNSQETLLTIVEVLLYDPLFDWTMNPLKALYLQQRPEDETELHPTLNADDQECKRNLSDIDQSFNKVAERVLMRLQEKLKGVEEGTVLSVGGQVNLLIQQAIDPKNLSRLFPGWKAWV

Consider `CC(C)n1c(=O)n(C)c2cnc3cc(F)c(-c4ccc(OCCCN5CCCCC5)nc4)cc3c21` [AZD1390, reference compound], for which, in experiment [1], the “D 17 TGI” value was found to be 82.8% and the “D 17 TV (MEAN ± SD)” value was 294 ± 52***^# mm^3. In experiment [2], the “D17 BLI” value was 4.90*** LOG10 and the “D 17 TGI” value is given as 124.08%. For the same molecule, the IC50 in experiment [3] was 200 pM.

For `Cn1c(=O)n2c3c4c(c(-c5ccc(OCCCN6CCCCC6)nc5)c(F)cc4ncc31)NCC2(C)C` [Example A-193, 6-fluoro-2,10,10-trimethyl-7-(6-(3-(piperidin-1-yl)propoxy)pyridin-3-yl)-2,8,9,10-tetrahydro-1H-2,4,8,10a-tetraazanaphtho[2,1,8-cde]azulen-1(2H)-one], in experiment [1], the “D 17 TGI” value turned out to be 81.1% and the “D 17 TV (MEAN ± SD)” value is recorded as 310 ± 61***^# mm^3. Further, in experiment [2] (combined with radiotherapy, compared with AZD1390), the “anti-tumor activity, in words” value was “equivalent to that of AZD1390”. In experiment [2], the “D17 BLI” value was 4.94*** LOG10 and the “D 17 TGI” value was determined as 122.49%. Further, in experiment [3], the IC50 was 650 pM.
